In ChEMBL document CHEMBL3763076, “Novel 2-phenyl-5-[(E)-2-(thiophen-2-yl)ethenyl]-1,3,4-oxadiazole and 3-phenyl-5-[(E)-2-(thiophen-2-yl)ethenyl]-1,2,4-oxadiazole derivatives as dengue virus inhibitors targeting NS5 polymerase” (Eur J Med Chem, 2016):

Key:
[1] = Cytotoxicity against African green monkey Vero E6 cells assessed as reduction in cell viability treated for 3 days measured on day 4 by cell titer-blue fluorescent assay; assay type: cell-based; conditions: chlorocebus sabaeus
dengue virus type 1 [2] = assay: Antiviral activity against clinical isolates of Dengue virus 1 Indonesia JKT 1186 TVP 949 infected in African green monkey Vero E6 cells assessed as reduction in viral RNA after 4 days by qRT-PCR method; assay type: functional, organism-based; conditions: Indonesia JKT 1186 TVP 949, Vero, 96 h
dengue virus type 2 [3] = assay: Antiviral activity against clinical isolates of Dengue virus 2 Martinique H/IMTSSA-MART/98-703 infected in African green monkey Vero E6 cells assessed as reduction in viral RNA after 4 days by qRT-PCR method; assay type: functional, organism-based; conditions: Martinique H/IMTSSA-MART/98-703, Vero, 96 h
dengue virus type 3 [4] = assay: Antiviral activity against clinical isolates of Dengue virus 3 Bolivia 4025 infected in African green monkey Vero E6 cells assessed as reduction in viral RNA after 4 days by qRT-PCR method; assay type: functional, organism-based; conditions: Bolivia 4025, Vero, 96 h
dengue virus type 4 [5] = assay: Antiviral activity against clinical isolates of Dengue virus 4 Dakar HD34460 infected in African green monkey Vero E6 cells assessed as reduction in viral RNA after 4 days by qRT-PCR method; assay type: functional, organism-based; conditions: 96 h
dengue virus type 4 [6] = assay: Antiviral activity against clinical isolates of Dengue virus 4 Martinique 017 infected in African green monkey Vero E6 cells assessed as reduction in viral RNA after 4 days by qRT-PCR method; assay type: functional, organism-based; conditions: Martinique 017, Vero, 96 h
dengue virus type 1 [7] = assay: Antiviral activity against clinical isolates of Dengue virus 1; assay type: functional, organism-based
dengue virus type 2 [8] = assay: Antiviral activity against clinical isolates of Dengue virus 2; assay type: functional, organism-based
dengue virus type 3 [9] = assay: Antiviral activity against clinical isolates of Dengue virus 3; assay type: functional, organism-based
dengue virus type 4 [10] = assay: Antiviral activity against clinical isolates of Dengue virus 4; assay type: functional, organism-based
[11] = Inhibition of Dengue virus 2 RdRp using homopolymeric uridine RNA as template assessed as reduction in RNA synthesis incubated for 10 mins by picogreen fluorescent assay; parameters: species or system dengue virus type 2

SMILES	IC50 [11]	further results
C#C[C@@]1(O)[C@H](O)[C@@H](CO)O[C@H]1n1ccc2c(N)ncnc21	–	CC50 at 72 h [1]: > 100000 nM; EC50 (dengue virus type 1 [2]): 860 nM; EC50 (dengue virus type 2 [3]): 820 nM; EC50 (dengue virus type 3 [4]): 120 nM; EC50 (dengue virus type 4 [5]): 80 nM; EC50 (dengue virus type 4 [6]): 30 nM
O=C(/C=C/c1ccc(Br)s1)Nc1ccc(Cl)c(Cl)c1	–	EC50 (dengue virus type 1 [7]): 40 nM; EC50 (dengue virus type 2 [8]): 40 nM; EC50 (dengue virus type 3 [9]): 40 nM; EC50 (dengue virus type 4 [10]): 40 nM
COc1ccc(-c2nnc(/C=C/c3ccc(-c4ccccc4)s3)o2)cc1	22000 nM	–
FC(F)(F)c1ccc(-c2noc(/C=C/c3ccc(Br)s3)n2)cc1	21000 nM	–
O=C(/C=C/c1ccc(-c2ccccc2)s1)Nc1cccc(Cl)c1	–	EC50 (dengue virus type 1 [7]): 400 nM; EC50 (dengue virus type 2 [8]): 400 nM; EC50 (dengue virus type 3 [9]): 400 nM; EC50 (dengue virus type 4 [10]): 400 nM
Brc1cccc(-c2nnc(/C=C/c3ccc(-c4ccccc4)s3)o2)c1	53900 nM	–
CN(C)c1ccc(-c2nnc(/C=C/c3ccc(-c4ccccc4)s3)o2)cc1	41900 nM	–
Brc1ccc(/C=C/c2nnc(-c3ccccc3)o2)s1	16100 nM	–
O=c1cc(-c2ccc(Oc3c(O)cc4oc(-c5ccc(O)cc5)cc(=O)c4c3O)cc2)oc2cc(O)cc(O)c12 [HINOKIFLAVONE]	450 nM	–

More lines, main results first:

IC50 [11]	SMILES	further results
20000 nM	CN(C)c1ccc(-c2nnc(/C=C/c3ccc(Br)s3)o2)cc1	–
18800 nM	C(=C\c1ccc(-c2ccccc2)s1)/c1nnc(-c2ccccc2)o1	–
17400 nM	Fc1ccc(-c2nnc(/C=C/c3ccc(-c4ccccc4)s3)o2)cc1	–
32600 nM	FC(F)(F)Oc1ccc(-c2noc(/C=C/c3ccc(Br)s3)n2)cc1	–
1300 nM	O=C(/C=C/c1ccc([N+](=O)[O-])s1)Nc1ccc([N+](=O)[O-])cc1O	–
16300 nM	Fc1cccc(-c2nnc(/C=C/c3ccc(Br)s3)o2)c1	–
16300 nM	Fc1ccc(-c2nnc(/C=C/c3ccc(Br)s3)o2)cc1	–
24300 nM	Clc1ccc(-c2nnc(/C=C/c3ccc(-c4ccccc4)s3)o2)cc1Cl	–
